Test results reported in patent publication US20180318311A1, “TRICYCLIC 2-QUINOLINONES AS ANTIBACTERIALS” (priority 2017, published 2018).
Converted amounts (≈) assume the structure as drawn. Where a name gives a salt, the structure may show the parent alone. Read-outs that look alike come from different tables or passages of the source.

Assays:
Format in all cases: cell-based
[1] = test system: P. aeruginosa NB52019, wild-type PAO1 strain; assay: MIC by broth microdilution, P. aeruginosa NB52019; settings: Pseudomonas aeruginosa, CAMHB, 35° C., 20 hours, read-out: Antibacterial activity (MIC) NB52019
Experimental: (§1) Bacterial isolates were cultivated from −80° C. frozen stocks by overnight passages at 35° C. in ambient air on Mueller-Hinton agar plates (MHA, Becton Dickinson, Franklin Lakes, NB) with the exception of S. pneumoniae which was grown overnight at 35° C. in the presence of 5% CO2 on blood agar plates (tryptic soy agar with 5% sheep blood (Thermo Scientific, Waltham, Mass.) . The following quality control and wild type strains were obtained from the American Type Culture Collection (ATCC; Rockville, Md.) and are coded in the Novartis strain collection as indicated: E. coli ATCC 25922 (NB27001), E. faecalis ATCC 29212 (NB04001), S. aureus ATCC 49951 (NB01006) and S. pneumoniae ATCC […] (NB07001). […] P. aeruginosa NB52019, obtained from Queen's University (Kingston, Ontario, Canada), is the wild-type PAO1 strain.
(§2) Minimal Inhibitory Concentrations (MIC) were determined by the broth microdilution method in accordance with Clinical and Laboratories Institute (CLSI) guidelines. In brief, fresh bacterial overnight cultures were re-suspended in sterile saline, adjusted to a 0.5 McFarland turbidity standard and then diluted to yield a final inoculum of approximately 5×10^5 colony-forming units (CFU)/mL. All bacterial suspensions were prepared in cation adjusted Mueller-Hinton Broth (CAMHB; Becton Dickinson, Franklin Lakes, N.J.;) with the exception of S. pneumoniae which was prepared in CAMHB supplemented with 5% lysed horse blood (Hardy Diagnostics, Santa Maria, Calif.). Two-fold serial dilutions of compounds were prepared in 100% dimethyl sulfoxide (DMSO) at 100-fold the highest final assay concentration; the resulting dilution series of compounds were diluted 1:10 with sterile water. Ten μL of the drug dilution series in 10% DMSO was transferred to microtiter wells and 90 μL of bacterial suspension was inoculated into the wells. All inoculated microdilution trays were incubated in ambient air at 35° C. for 20 hours. Following incubation, assay plates were read in a microtiter plate reader at 600 nm and visually inspected to confirm the MIC endpoint well with the OD value. The lowest concentration of the compound that prevented visible growth was recorded as the MIC (in μg/mL).

[2] = test system: S. aureus ATCC 49951 (NB01006); assay: MIC by broth microdilution, S. aureus NB01006; settings: Staphylococcus aureus, ATCC49951, CAMHB, 35° C., 20 hours, read-out: Antibacterial activity (MIC) NB01006
Experimental: as §1, §2

[3] = test system: S. pneumoniae ATCC 25922 (NB07001); assay: MIC by broth microdilution, S. pneumoniae NB07001; settings: Streptococcus pneumoniae, read-out: Antibacterial activity (MIC) NB07001
Experimental: as §1, §2

[4] = test system: E. coli ATCC 25922 (NB27001); assay: MIC by broth microdilution, E. coli NB27001; settings: Escherichia coli, ATCC25922, CAMHB, 35° C., 20 hours, read-out: Antibacterial activity (MIC) NB27001
Experimental: as §1, §2

[5] = test system: S. aureus NB01080 fluoroquinolone-resistant clinical isolate; assay: MIC by broth microdilution, S. aureus NB01080; settings: Staphylococcus aureus, CAMHB, 35° C., 20 hours, read-out: Antibacterial activity (MIC) NB01080
Experimental: as §1, §2

[6] = test system: E. faecalis ATCC 29212 (NB04001); assay: MIC by broth microdilution, E. faecalis NB04001; settings: Enterococcus faecalis, ATCC29212, CAMHB, 35° C., 20 hours, read-out: Antibacterial activity (MIC) NB04001
Experimental: as §1, §2

[7] = test system: S. aureus NB01006-AVR005, gyrA (S84L), grlA (580F) and grlB (E471K); assay: microbe, parasite or virus in culture; settings: Staphylococcus aureus, 20 h, read-out: Antibacterial activity (MIC) NB01006-AVR005
Experimental: as §1, §2

[8] = ATCC25922, S. pneumoniae, CAMHB supplemented with 5% lysed horse blood, 35° C., 20 hours

Structure (SMILES) | MIC [1] | MIC [2] | MIC ([3]; ATCC25922, 20 h) | MIC [4] | MIC [5] | MIC [6] | MIC [7] | MIC [3, 8]
C[C@H]1COc2c(N3CC4CC4(N)C3)c(F)cc3c(CN)cc(=O)n1c23 (stereo partly drawn) [Example 7.10, (3S)-10-(1-amino-3-azabicyclo[3.1.0]hexan-3-yl)-7-(aminomethyl)-9-fluoro-3-methyl-2,3-dihydro-5H-[1,4]oxazino[2,3,4-ij]quinolin-5-one] | 1 to 32 mg/L (≈ 2.9 to 92.9 µM) | < 1 mg/L | < 1 mg/L | < 1 mg/L | 1 to 32 mg/L (≈ 2.9 to 92.9 µM) | 1 to 32 mg/L (≈ 2.9 to 92.9 µM) | < 1 mg/L | –
C[C@H]1COc2c(N3CCC(C)(CN)C3)c(F)cc3cc(C(=O)O)c(=O)n1c23 (stereo partly drawn) [Example 1.26, (3S)-10-(3-(aminomethyl)-3-methylpyrrolidin-1-yl)-9-fluoro-3-methyl-5-oxo-2,3-dihydro-5H-[1,4]oxazino[2,3,4-ij]quinoline-6-carboxylic acid] | > 32 mg/L | 1 to 32 mg/L (≈ 2.66 to 85.2 µM) | 1 to 32 mg/L (≈ 2.66 to 85.2 µM) | 1 to 32 mg/L (≈ 2.66 to 85.2 µM) | 1 to 32 mg/L (≈ 2.66 to 85.2 µM) | 1 to 32 mg/L (≈ 2.66 to 85.2 µM) | > 32 mg/L | –
C[C@H]1COc2c(N3CC[C@@H](C4(N(C)C)CC4)C3)c(F)cc3cc(C(=O)O)c(=O)n1c23 [Example 1.27, (S)-10-((R)-3-(1-(dimethylamino)cyclopropyl)pyrrolidin-1-yl)-9-fluoro-3-methyl-5-oxo-2,3-dihydro-5H-[1,4]oxazino[2,3,4-ij]quinoline-6-carboxylic acid] | > 32 mg/L | 1 to 32 mg/L (≈ 2.41 to 77 µM) | < 1 mg/L | 1 to 32 mg/L (≈ 2.41 to 77 µM) | 1 to 32 mg/L (≈ 2.41 to 77 µM) | 1 to 32 mg/L (≈ 2.41 to 77 µM) | > 32 mg/L | –
COc1c(N2CC[C@@H](C3(N)CC3)C2)c2c3c(cc(C(=O)O)c(=O)n3[C@@H](C)CO2)c1N [Example 15, (S)-8-amino-10-((R)-3-(1-aminocyclopropyl)pyrrolidin-1-yl)-9-methoxy-3-methyl-5-oxo-2,3-dihydro-5H-[1,4]oxazino[2,3,4-ij]quinoline-6-carboxylic acid formate salt] | > 32 mg/L | > 32 mg/L | 1 to 32 mg/L | > 32 mg/L | > 32 mg/L | > 32 mg/L | > 32 mg/L | –
C[C@H]1COc2c(N3CC[C@@H]([C@@H](N)C(F)F)C3)c(F)cc3cc(C(=O)O)c(=O)n1c23 [Example 1.53, (S)-10-((R)-3-((R)-1-amino-2,2-difluoroethyl)pyrrolidin-1-yl)-9-fluoro-3-methyl-5-oxo-2,3-dihydro-5H-[1,4]oxazino[2,3,4-ij]quinoline-6-carboxylic acid] | > 32 mg/L | < 1 mg/L | < 1 mg/L | 1 to 32 mg/L (≈ 2.43 to 77.8 µM) | < 1 mg/L | < 1 mg/L | 1 to 32 mg/L (≈ 2.43 to 77.8 µM) | –
C[C@H](N)[C@@H]1CCN(c2ccc3cc(C(=O)O)c(=O)n4c3c2OC[C@@H]4C)C1 [Example 12.4, (S)-10-((R)-3-((S)-1-aminoethyl)pyrrolidin-1-yl)-3-methyl-5-oxo-2,3-dihydro-5H-[1,4]oxazino[2,3,4-ij]quinoline-6-carboxylic acid] | 1 to 32 mg/L (≈ 2.8 to 89.5 µM) | < 1 mg/L | < 1 mg/L | 1 to 32 mg/L (≈ 2.8 to 89.5 µM) | 1 to 32 mg/L (≈ 2.8 to 89.5 µM) | < 1 mg/L | 1 to 32 mg/L (≈ 2.8 to 89.5 µM) | –
C[C@H]1COc2c(N3CC[C@H](N)C3)c(F)cc3c(CN)cc(=O)n1c23 [Example 7.2, (S)-7-(aminomethyl)-10-((S)-3-aminopyrrolidin-1-yl)-9-fluoro-3-methyl-2,3-dihydro-5H-[1,4]oxazino[2,3,4-ij]quinolin-5-one] | 1 to 32 mg/L (≈ 3.01 to 96.3 µM) | – | 1 to 32 mg/L (≈ 3.01 to 96.3 µM) | 1 to 32 mg/L (≈ 3.01 to 96.3 µM) | > 32 mg/L | – | 1 to 32 mg/L (≈ 3.01 to 96.3 µM) | –
NC1([C@@H]2CCN(c3c(F)cc4cc(C(=O)O)c(=O)n5c4c3OCC5)C2)CC1 [Example 1.20, (R)-10-(3-(1-aminocyclopropyl)pyrrolidin-1-yl)-9-fluoro-5-oxo-2,3-dihydro-5H-[1,4]oxazino[2,3,4-ij]quinoline-6-carboxylic acid] | > 32 mg/L | 1 to 32 mg/L (≈ 2.68 to 85.7 µM) | 1 to 32 mg/L (≈ 2.68 to 85.7 µM) | > 32 mg/L | 1 to 32 mg/L (≈ 2.68 to 85.7 µM) | 1 to 32 mg/L (≈ 2.68 to 85.7 µM) | > 32 mg/L | –
C[C@@H]1COc2c(N3CCNCC3)c(F)cc3c(CN)cc(=O)n1c23 [Example 7.4, (R)-7-(aminomethyl)-9-fluoro-3-methyl-10-(piperazin-1-yl)-2,3-dihydro-5H-[1,4]oxazino[2,3,4-ij]quinolin-5-one] | > 32 mg/L | – | – | > 32 mg/L | > 32 mg/L | – | > 32 mg/L | > 32 mg/L
NCc1cc(=O)n2c3c(c(N4CCNCC4)c(F)cc13)OCC2 [Example 7.7, 7-(aminomethyl)-9-fluoro-10-(piperazin-1-yl)-2,3-dihydro-5H-[1,4]oxazino[2,3,4-ij]quinolin-5-one] | > 32 mg/L | – | – | > 32 mg/L | > 32 mg/L | – | > 32 mg/L | > 32 mg/L
C[C@@H]1COc2c(N3CCC(F)(CN)C3)c(F)cc3c(CN)cc(=O)n1c23 (stereo partly drawn) [Example 7.3, (3R)-7-(aminomethyl)-10-(3-(aminomethyl)-3-fluoropyrrolidin-1-yl)-9-fluoro-3-methyl-2,3-dihydro-5H-[1,4]oxazino[2,3,4-ij]quinolin-5-one] | > 32 mg/L | – | > 32 mg/L | > 32 mg/L | > 32 mg/L | – | > 32 mg/L | –
C[C@H]1COc2c(N3CCC(F)(CN)C3)c(F)cc3c(CN)cc(=O)n1c23.O=C(O)C(F)(F)F (stereo partly drawn) [Example 7.1, (3S)-7-(aminomethyl)-10-(3-(aminomethyl)-3-fluoropyrrolidin-1-yl)-9-fluoro-3-methyl-2,3-dihydro-5H-[1,4]oxazino[2,3,4-ij]quinolin-5-one trifluoroacetate salt] | 1 to 32 mg/L | – | – | 1 to 32 mg/L | 1 to 32 mg/L | – | 1 to 32 mg/L | < 1 mg/L
NCc1cc(=O)n2c3c(c(N4CCC(F)(CN)C4)c(F)cc13)OCC2 (stereo not shown) [Example 7.5, 7-(aminomethyl)-10-(3-(aminomethyl)-3-fluoropyrrolidin-1-yl)-9-fluoro-2,3-dihydro-5H-[1,4]oxazino[2,3,4-ij]quinolin-5-one] | > 32 mg/L | – | > 32 mg/L | > 32 mg/L | > 32 mg/L | – | > 32 mg/L | –
N#Cc1cc(=O)n2c3c(c(N4CCNCC4)c(F)cc13)OCC2 [Example 7.8, 9-fluoro-5-oxo-10-(piperazin-1-yl)-2,3-dihydro-5H-[1,4]oxazino[2,3,4-ij]quinoline-7-carbonitrile] | > 32 mg/L | – | – | > 32 mg/L | > 32 mg/L | – | > 32 mg/L | > 32 mg/L
COC(=O)c1cc2cc(F)c(N3CC[C@@H](C4(N)CC4)C3)c3c2n(c1=O)[C@@H](C)CO3 [Example 1.7, Methyl (S)-10-((R)-3-(1-aminocyclopropyl)pyrrolidin-1-yl)-9-fluoro-3-methyl-5-oxo-2,3-dihydro-5H-[1,4]oxazino[2,3,4-ij]quinoline-6-carboxylate] | – | < 1 mg/L | < 1 mg/L | > 32 mg/L | < 1 mg/L | < 1 mg/L | 1 to 32 mg/L (≈ 2.49 to 79.7 µM) | –
O=C(O)c1cn(C2CC2)c2cc(N3CCNCC3)c(F)cc2c1=O [CIP, Ciprofloxacin, reference compound] | < 1 mg/L | < 1 mg/L | < 1 mg/L | < 1 mg/L | – | < 1 mg/L | – | –
N#Cc1cc(=O)n2c3c(c(N4CCC(F)(CN)C4)c(F)cc13)OCC2 (stereo not shown) [Example 7.6, 10-(3-(aminomethyl)-3-fluoropyrrolidin-1-yl)-9-fluoro-5-oxo-2,3-dihydro-5H-[1,4]oxazino[2,3,4-ij]quinoline-7-carbonitrile] | > 32 mg/L | – | > 32 mg/L | > 32 mg/L | 1 to 32 mg/L (≈ 2.89 to 92.4 µM) | – | > 32 mg/L | –
